From paper PMC6033897, “Characterization and Validation of a Human 3D Cardiac Microtissue for the Assessment of Changes in Cardiac Pathology” (Scientific Reports, 2018)
Counter-ions that a name gives are not always drawn.

Assays:
cardiac microtissues [1] = assay: Cellular viability (ATP depletion, CellTiter-Glo) in cardiac microtissues; assay type: cell-based, human; conditions: for IC50: read-out: Cellular viability (ATP depletion) IC50
Protocol: (§1) Cellular ATP concentrations were assessed using the CellTiter-Glo® Luminescent Cell Viability Assay as per the manufacturer’s instructions (Promega); for cardiac microtissues 40 µl media was removed prior to the addition of 40 µl CellTiter-Glo® reagent. […] Data from the same treatment on minimum of 3 occasions were averaged to represent the mean ATP measurement.

cardiac microtissues [2] = assay: ER integrity (ER-Tracker blue imaging) in cardiac microtissues; assay type: cell-based, human; conditions: for IC50: read-out: ER integrity IC50
Protocol: (§2) Cardiac microtissues were stained with fluorescent probes in cell culture media, 40 µl media was removed and 40 µl of 2x multiplexed dye was added back to the well for 30 minutes at 37 °C, 5% CO2. Fluorescent probes used were ER-Tracker blue (2 µM) to measure endoplasmic reticulum (ER) integrity and TMRE (500 nM) to measure mitochondrial membrane potential (ΔΨm). All microtissues were imaged on a Cell Voyager 7000 (YokogawaInc.) and images captured using a 20x objective (Olympus UPLSAPO 0.75 NA, 0.6 mm WD), with a 2 × 2 bin. Plates are imaged live, prior to use the stage temperature was set to 37 °C and CO2 level at 5%. […] Transmitted light images were acquired using a 100 W Halogen lamp as an illumination source. Images were captured over a 60 μm range in the Z-axis with a 5 μm interval between slices. Z-stack images were output as a maximal projection of multiple z-planes.
(§3) Maximum projection images were imported and analysed in the Columbus Platform (v2.7, Perkin Elmer Inc.).

cardiac microtissues [3] = assay: Mitochondrial membrane potential (ΔΨm, TMRE imaging) in cardiac microtissues; assay type: cell-based, human; conditions: for IC50: read-out: Mitochondrial membrane potential (ΔΨm) IC50
Protocol: as §2, §3

[4] = total Cmax, therapeutically relevant maximum total plasma concentration; source not given; cited from earlier work
H9c2 cells = tested on: H9c2 cells; parameters: method as in PMID 18664550; conditions: read-out: reported IC50 value in H9c2 cells; cited from earlier work
hESC-CMs = conditions: read-out: reported IC50 value in hESC-CMs; cited from earlier work
cardiac microtissues [5] = assay: Therapeutic index (IC50 in cardiac microtissues divided by total Cmax); assay type: cell-based, human
hCMEC [6] = assay: ER integrity in 2D monoculture; assay type: cell-based; conditions: Homo sapiens
Protocol: (§4) For 2D monoculture, hiPS-CM, hCMEC and hCF were cultured as described above and seeded in CellCarrier-384 Ultra microplates (Perkin Elmer, 6057300) at 5000, 2500 and 1750 cells/well respectively.
(§5) Monoculture cells were stained with fluorescent probes diluted in cell culture media, 25 µl media was removed and 25 µl of 2x multiplexed dye was added back to the well for 15 minutes at 37 °C, 5% CO2.

hiPS-CM [7] = assay: ER integrity in 2D monoculture; assay type: cell-based; conditions: Homo sapiens
Protocol: as §4, §5

hCMEC [8] = assay: Mitochondrial membrane potential (ΔΨm) in 2D monoculture; assay type: cell-based; conditions: Homo sapiens
Protocol: as §4, §5

hiPS-CM [9] = assay: as above; assay type: cell-based; conditions: Homo sapiens
Protocol: as §4, §5

hCMEC [10] = assay: Cellular viability (ATP depletion) in 2D monoculture; assay type: cell-based; conditions: Homo sapiens
Protocol: as §4, §1

hiPS-CM [11] = assay: as above; assay type: cell-based; conditions: Homo sapiens
Protocol: as §4, §1

hCF [12] = assay: ER integrity in 2D monoculture; conditions: Homo sapiens, read-out: ER integrity IC50
hCF [13] = assay: Cellular viability (ATP depletion) in 2D monoculture; conditions: Homo sapiens, read-out: Cellular viability (ATP depletion) IC50
hCF [14] = assay: Mitochondrial membrane potential (ΔΨm) in 2D monoculture; conditions: Homo sapiens, read-out: Mitochondrial membrane potential (ΔΨm) IC50
cardiac microtissues [15] = assay: Histopathology (H&E, IHC, IF) of treated cardiac microtissues; assay type: cell-based, human; conditions: 24 hours; sunitinib 100 µM; doxorubicin 0.1 and 30 µM (Fig. 2)
Protocol: Microtissues were harvested from 384 well-plates and washed twice in 1x PBS (Sigma P7059) subsequent to fixation in 3.7% paraformaldehyde (PFA) (Sigma F1635) at 4 °C for one hour. The 3.7% PFA was then removed and replaced with two washes of 1x PBS. The PBS was removed and replaced with liquid HistoGel (Thermo Fisher HG-4000-012) and left on ice for 30 minutes to solidify. The HistoGel pellet was placed into a histological cassette and processed using an enclosed tissue processor overnight. The HistoGel was then embedded using paraffin wax.
The formalin fixed paraffin embedded (FFPE) blocks were then sectioned at each time point at three 50 µm step levels with 8 × serial sections per level at 3 µm. H&E staining was performed on microtissue sections using Mayer’s Haematoxylin using a standard automated protocol. Standard automated immunohistochemistry (IHC) and immunofluorescence (IF) protocols were used for primary antibody detection at different dilutions (Supplementary Table 3) on microtissue sections. Diaminobenzadine (DAB) (Roche Diagnostics 760–159) was used to visualise positive staining in single-plex staining and Alkaline Phosphatase Fast Red (Roche Diagnostics 760–160) with DAB were used in dual staining, with a haematoxylin counterstain. […] A minimum of 15 microtissues per time point/treatment were evaluated. […]

[16] = Homo sapiens, cardiac microtissues, 72 hours, geometric mean
[17] = cardiac microtissues, 72 hours, geometric mean
[18] = cardiac microtissues, mechanistic fingerprint

Row | IC50 (cardiac microtissues [2]; [16]) | IC50 (cardiac microtissues [3]; [16]) | Structure (SMILES) | IC50 (cardiac microtissues [1]; [16]) | Cmax [4] | also measured
1 | 23.7 µM | > 100 µM | CC(C)(C)c1ccc(C(O)CCCN2CCC(C(O)(c3ccccc3)c3ccccc3)CC2)cc1 (stereo not drawn) [Terfenadine] | 13 µM | 130 nM | –
2 | 6.42 µM | 8.22 µM | CNC(=O)c1cc(Oc2ccc(NC(=O)Nc3ccc(Cl)c(C(F)(F)F)c3)cc2)ccn1 [Sorafenib Tosylate] | 8.72 µM | – | IC50 (H9c2 cells): 44.9 µM; IC50 (hESC-CMs): 15.2 µM
3 | 1.67 µM | 0.97 µM | CC(=O)[C@]1(O)Cc2c(O)c3c(c(O)c2[C@@H](O[C@H]2C[C@H](N)[C@H](O)[C@H](C)O2)C1)C(=O)c1ccccc1C3=O [Idarubicin HCl] | 0.03 µM | 120 nM | –
4 | > 30 µM | > 30 µM | C#Cc1cccc(Nc2ncnc3cc(OCCOC)c(OCCOC)cc23)c1 [Erlotinib] | 20.8 µM | 3000 nM | –
5 | > 100 µM | > 100 µM | Cc1nc(Nc2ncc(C(=O)Nc3c(C)cccc3Cl)s2)cc(N2CCN(CCO)CC2)n1 [Dasatinib] | 27.1 µM | – | Therapeutic index (TI): lowest IC50 of ΔΨm, ER integrity or ATP depletion / total Cmax (cardiac microtissues [5]): ≤ 100 times Cmax
6 | > 100 µM | > 100 µM | O=C1CC2(CCCC2)CC(=O)N1CCCCN1CCN(c2ncccn2)CC1 [Buspirone HCl] | 56.4 µM | 30 nM | –
7 | > 100 µM | > 100 µM | Nc1nc2c(ncn2COCCO)c(=O)[nH]1 [Acyclovir] | > 100 µM | 6660 nM | –
8 | – | – | O=P1(N(CCCl)CCCl)NCCCO1 (stereo not drawn) [Cyclophosphamide] | – | 153000 nM | IC50 (cardiac microtissues [1]; Homo sapiens, 72 h): 54.4 µM; IC50 (cardiac microtissues [2]; Homo sapiens, 72 h): 60.7 µM; IC50 (cardiac microtissues [3]; Homo sapiens, 72 h): 65.7 µM
9 | – | – | O=C1C[C@@H](c2ccc(O)cc2)Oc2cc(O)cc(O)c21 [Narigenin] | – | 15400 nM | IC50 (cardiac microtissues [1]; [17]): 62.5 µM; IC50 (cardiac microtissues [2]; [17]): > 100 µM; IC50 (cardiac microtissues [3]; [17]): > 100 µM
10 | > 100 µM | > 100 µM | Cc1ccc(C)c(OCCCC(C)(C)C(=O)O)c1 [Gemfibrozil] | > 100 µM | 99900 nM | –
11 | – | – | CN1CCN(C2=Nc3cc(Cl)ccc3Nc3ccccc32)CC1 [Clozapine] | – | 470 nM | –
12 | – | – | CN(C)CCN(Cc1cccs1)c1ccccn1 [Methapyrilene] | – | 15300 nM | –
13 | 60 µM | 11.3 µM | O=c1[nH]cc(F)c(=O)[nH]1 [Fluorouracil] | 27.5 µM | 4610 nM | –
14 | 5.97 µM | > 50 µM | COC(=O)Nc1nc2ccc(C(=O)c3ccccc3)cc2[nH]1 [Mebendazole] | > 50 µM | 2030 nM | –
15 | > 100 µM | 2.84 µM | CS(=O)(=O)CCNCc1ccc(-c2ccc3ncnc(Nc4ccc(OCc5cccc(F)c5)c(Cl)c4)c3c2)o1 [Lapatinib] | 12.9 µM | 4180 nM | Cellular viability modulated at multiple of total Cmax (cardiac microtissues [1]; [18]): ≤ 10 times the total Cmax; ER integrity modulated at multiple of total Cmax (cardiac microtissues [2]; [18]): ≤ 100 times the total Cmax; ΔΨm modulated at multiple of total Cmax (cardiac microtissues [3]; [18]): ≤ 1 times the total Cmax; IC50 (hCMEC [6]; 24 hours): 26.7 µM; IC50 (hCMEC [6]; 72 hours): 4.4 µM; IC50 (hiPS-CM [7]; 24 hours): 23.6 µM; IC50 (hiPS-CM [7]; 72 hours): 3.1 µM; IC50 (hCMEC [8]; 24 hours): 5.47 µM; IC50 (hCMEC [8]; 72 hours): 11.6 µM; IC50 (hiPS-CM [9]; 24 hours): 31.9 µM; IC50 (hiPS-CM [9]; 72 hours): 23.6 µM; IC50 (hCMEC [10]; 24 hours): 16.2 µM; IC50 (hCMEC [10]; 72 hours): 3.07 µM; IC50 (hiPS-CM [11]; 72 hours): > 100 µM; IC50 (hCF [12]; 24 h): 14.7 µM; IC50 (hCF [12]; 72 h): 11 µM; IC50 (hCF [13]; 24 h): 21.6 µM; IC50 (hCF [13]; 72 h): 11 µM; IC50 (hCF [14]; 24 h): 42.9 µM; IC50 (hCF [14]; 72 h): 28.8 µM
16 | 3.56 µM | > 50 µM | C[C@@H]1[C@H](O)[C@@H](C)/C=C/C=C/C=C/C=C/C=C/C=C/C=C/[C@H](O[C@@H]2O[C@H](C)[C@@H](O)[C@H](N)[C@@H]2O)C[C@@H]2O[C@](O)(C[C@@H](O)C[C@@H](O)[C@H](O)CC[C@@H](O)C[C@@H](O)CC(=O)O[C@H]1C)C[C@H](O)[C@H]2C(=O)O [Amphotericin B] | 37.6 µM | 9000 nM | –
17 | > 50 µM | > 50 µM | Nc1cc(N2CCCCC2)nc(N)[n+]1[O-] [Minoxidil] | > 50 µM | 14800 nM | –
18 | 76.9 µM | 59.2 µM | CC(C)NCC(O)c1ccc(O)c(O)c1 (stereo not drawn) [Isoproterenol HCl] | > 100 µM | 10 nM | –
19 | 0.39 µM | 2.58 µM | CCN(CC)CCNC(=O)c1c(C)[nH]c(/C=C2\C(=O)Nc3ccc(F)cc32)c1C [Sunitinib Malate] | 8.23 µM | 250 nM | IC50 (cardiac microtissues [1]; Homo sapiens, cardiac microtissues, 24 hours): 46.2 µM; IC50 (hCMEC [6]; 24 hours): 2.96 µM; IC50 (hCMEC [6]; 72 hours): 12.7 µM; IC50 (hiPS-CM [7]; 24 hours): 4.48 µM; IC50 (hiPS-CM [7]; 72 hours): 2.63 µM; IC50 (hCMEC [8]; 24 hours): 9.57 µM; IC50 (hCMEC [8]; 72 hours): 2.97 µM; IC50 (hiPS-CM [9]; 24 hours): 16.1 µM; IC50 (hiPS-CM [9]; 72 hours): 16.2 µM; IC50 (hCMEC [10]; 24 hours): 4.9 µM; IC50 (hCMEC [10]; 72 hours): 0.8 µM; IC50 (hiPS-CM [11]; 24 hours): 24.7 µM; IC50 (hiPS-CM [11]; 72 hours): 27.1 µM; Histopathological / morphological changes (cardiac microtissues [15]): clear reduction in overall cellularity; IC50 (hCF [12]; 24 h): 6.59 µM; IC50 (hCF [12]; 72 h): 0.37 µM; IC50 (hCF [13]; 24 h): 16.5 µM; IC50 (hCF [13]; 72 h): 4 µM; IC50 (hCF [14]; 24 h): 17.8 µM; IC50 (hCF [14]; 72 h): 11.6 µM
20 | 0.82 µM | > 100 µM | O=C(C1CCCCC1)N1CC(=O)N2CCc3ccccc3C2C1 (stereo not drawn) [Praziquantel] | 10.1 µM | 640 nM | –
21 | – | – | COc1cc(N)c(Cl)cc1C(=O)NC1CCN(CCCOc2ccc(F)cc2)CC1OC (stereo not drawn) [Cisapride Hydrate] | – | 170 nM | IC50 (cardiac microtissues [1]; [17]): 76.4 µM; IC50 (cardiac microtissues [2]; [17]): 32.8 µM; IC50 (cardiac microtissues [3]; [17]): > 100 µM
22 | > 100 µM | > 100 µM | CC(C(=O)O)c1cccc(C(=O)c2ccccc2)c1 (stereo not drawn) [Ketoprofen] | 37.6 µM | – | –

Row | Structure (SMILES) | IC50 (cardiac microtissues [2]; [16]) | IC50 (cardiac microtissues [3]; [16]) | IC50 (cardiac microtissues [1]; [16]) | Cmax [4] | also measured
23 | CC(C)C[C@H](NC(=O)[C@H](Cc1ccccc1)NC(=O)c1cnccn1)B(O)O [Bortezomib] | 91.8 µM | 1.62 µM | 0.35 µM | 290 nM | –
24 | O=C1c2c(O)ccc(O)c2C(=O)c2c(NCCNCCO)ccc(NCCNCCO)c21 [Mitoxantrone diHCl] | 1.1 µM | 0.98 µM | 0.29 µM | – | –
